Calls of active or inactive are those of the source. No cut-off for these calls is given here.
Key:
Format in all cases: functional, cell-based
[1] = target: T1, Taste receptor type 2 member 4 (Homo sapiens) (UniProt Q9NYW5); assay: Agonist activity at recombinant human N-terminal rat ST3 receptor-fused TAS2R4 expressed in HEK293T cells co-expressing Galpha16gust44 assessed as effect on intracellular calcium level at 100 uM by FLIPR assay
T1 sequence (whole entry): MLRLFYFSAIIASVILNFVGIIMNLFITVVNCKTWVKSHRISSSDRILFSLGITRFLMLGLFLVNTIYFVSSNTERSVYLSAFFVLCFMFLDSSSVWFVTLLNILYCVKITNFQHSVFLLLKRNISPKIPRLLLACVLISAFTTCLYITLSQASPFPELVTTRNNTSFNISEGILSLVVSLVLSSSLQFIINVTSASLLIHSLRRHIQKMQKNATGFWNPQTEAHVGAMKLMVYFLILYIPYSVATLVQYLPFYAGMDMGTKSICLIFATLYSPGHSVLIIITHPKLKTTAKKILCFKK

[2] = target: T2, Taste receptor type 2 member 38 (Homo sapiens) (UniProt P59533); assay: Agonist activity at recombinant human N-terminal rat ST3 receptor-fused TAS2R38 expressed in HEK293T cells co-expressing Galpha16gust44 assessed as effect on intracellular calcium level at 100 uM by FLIPR assay
T2 sequence (whole entry): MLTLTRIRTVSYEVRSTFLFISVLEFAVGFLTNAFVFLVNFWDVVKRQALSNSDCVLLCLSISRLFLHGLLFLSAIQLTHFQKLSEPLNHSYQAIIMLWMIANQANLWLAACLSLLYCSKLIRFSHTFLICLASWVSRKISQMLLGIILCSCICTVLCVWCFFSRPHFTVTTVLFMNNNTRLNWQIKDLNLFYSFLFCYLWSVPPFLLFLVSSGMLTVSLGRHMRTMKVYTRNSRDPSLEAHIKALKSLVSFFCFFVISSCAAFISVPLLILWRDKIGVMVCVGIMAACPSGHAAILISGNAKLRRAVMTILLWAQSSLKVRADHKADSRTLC

[3] = target: Taste receptor type 2 member 5 (Homo sapiens) (UniProt Q9NYW4); assay: Agonist activity at recombinant human N-terminal rat ST3 receptor-fused TAS2R5 expressed in HEK293T cells co-expressing Galpha16gust44 assessed as effect on intracellular calcium level at 100 uM by FLIPR assay
Chain of Taste receptor type 2 member 5 (Homo sapiens) (Q9NYW4 whole entry, the tested form may be a part): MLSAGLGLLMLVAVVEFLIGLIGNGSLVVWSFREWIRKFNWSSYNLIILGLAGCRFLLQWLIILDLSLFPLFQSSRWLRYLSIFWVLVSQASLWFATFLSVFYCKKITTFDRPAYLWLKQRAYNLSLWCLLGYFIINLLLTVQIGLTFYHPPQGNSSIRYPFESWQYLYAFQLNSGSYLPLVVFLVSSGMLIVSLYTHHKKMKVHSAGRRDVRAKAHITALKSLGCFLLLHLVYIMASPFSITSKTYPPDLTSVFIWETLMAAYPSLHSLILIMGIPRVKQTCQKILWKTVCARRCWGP

[4] = target: T3, Taste receptor type 2 member 3 (Homo sapiens) (UniProt Q9NYW6); assay: Activity at recombinant human N-terminal rat ST3 receptor-fused TAS2R3 expressed in HEK293T cells co-expressing Galpha16gust44 assessed as effect on chloroquine-induced intracellular calcium level at 100 uM by FLIPR assay
T3 sequence (whole entry): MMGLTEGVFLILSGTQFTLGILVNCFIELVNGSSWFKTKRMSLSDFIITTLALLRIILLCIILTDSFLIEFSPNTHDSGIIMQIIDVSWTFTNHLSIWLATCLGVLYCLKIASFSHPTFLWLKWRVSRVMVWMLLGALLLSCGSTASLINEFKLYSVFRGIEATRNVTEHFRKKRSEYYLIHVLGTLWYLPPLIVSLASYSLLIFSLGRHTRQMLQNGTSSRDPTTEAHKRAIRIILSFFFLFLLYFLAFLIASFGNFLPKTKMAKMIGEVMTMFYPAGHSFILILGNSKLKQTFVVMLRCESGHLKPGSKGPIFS

[5] = target: T4, Taste receptor type 2 member 16 (Homo sapiens) (UniProt Q9NYV7); assay: Activity at recombinant human N-terminal rat ST3 receptor-fused TAS2R16 expressed in HEK293T cells co-expressing Galpha16gust44 assessed as effect on D-salicin-induced intracellular calcium level at 100 uM by FLIPR assay
T4 sequence (whole entry): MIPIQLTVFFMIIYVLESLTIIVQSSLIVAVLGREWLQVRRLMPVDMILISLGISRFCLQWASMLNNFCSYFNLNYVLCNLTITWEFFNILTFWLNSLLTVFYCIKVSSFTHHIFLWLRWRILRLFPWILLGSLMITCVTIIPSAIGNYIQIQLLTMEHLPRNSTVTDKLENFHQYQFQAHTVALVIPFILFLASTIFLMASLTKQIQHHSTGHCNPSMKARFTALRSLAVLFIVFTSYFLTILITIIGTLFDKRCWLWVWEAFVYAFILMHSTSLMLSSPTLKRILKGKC

[6] = target: T2, Taste receptor type 2 member 38 (Homo sapiens); assay: Activity at recombinant human N-terminal rat ST3 receptor-fused TAS2R38 expressed in HEK293T cells co-expressing Galpha16gust44 assessed as effect on phenylthiocarbamide-induced intracellular calcium level at 100 uM by FLIPR assay
[7] = target: T5, Taste receptor type 2 member 39 (Homo sapiens) (UniProt P59534); assay: Activity at recombinant human N-terminal rat ST3 receptor-fused TAS2R39 expressed in HEK293T cells co-expressing Galpha16gust44 assessed as effect on epigallocatechin gallate-induced intracellular calcium level at 100 uM by FLIPR assay
T5 sequence (whole entry): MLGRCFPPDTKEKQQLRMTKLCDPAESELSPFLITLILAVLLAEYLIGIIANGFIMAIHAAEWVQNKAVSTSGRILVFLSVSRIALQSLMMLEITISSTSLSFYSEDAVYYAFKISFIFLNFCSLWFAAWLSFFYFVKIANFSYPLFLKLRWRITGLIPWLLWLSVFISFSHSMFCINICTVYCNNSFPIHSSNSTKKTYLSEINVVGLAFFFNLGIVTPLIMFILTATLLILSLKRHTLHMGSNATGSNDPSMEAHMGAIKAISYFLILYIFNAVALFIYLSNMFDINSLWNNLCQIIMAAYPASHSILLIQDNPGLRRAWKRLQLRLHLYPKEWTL

[8] = target: T6, Taste receptor type 2 member 43 (Homo sapiens) (UniProt P59537); assay: Antagonist activity at recombinant human N-terminal rat ST3 receptor-fused TAS2R43 expressed in HEK293T cells co-expressing Galpha16gust44 assessed as reduction in aristolochic acids-induced intracellular calcium level at 100 uM by FLIPR assay
T6 sequence (whole entry): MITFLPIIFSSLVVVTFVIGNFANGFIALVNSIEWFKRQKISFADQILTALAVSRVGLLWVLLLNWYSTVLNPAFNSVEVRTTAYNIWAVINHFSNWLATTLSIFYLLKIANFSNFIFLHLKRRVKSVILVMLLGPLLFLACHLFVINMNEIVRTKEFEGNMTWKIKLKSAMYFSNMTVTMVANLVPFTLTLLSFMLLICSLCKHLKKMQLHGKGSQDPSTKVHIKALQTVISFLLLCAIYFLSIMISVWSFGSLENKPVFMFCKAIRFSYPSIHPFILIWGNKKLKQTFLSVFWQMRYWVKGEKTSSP

Structure (SMILES) | Activity [1] | Activity [2] | Activity [3] | Activity [4] | Activity [5] | Activity [6] | Activity [7] | inhibition [8]
C/C1=C\C[C@H](O)/C(C)=C/[C@H]2OC(=O)[C@@H](C)C2CC1 (stereo partly drawn) | Active | inactive | inactive | inactive | inactive | inactive | inactive | Active
C/C1=C\C[C@H](O)[C@@H](C)C[C@H]2OC(=O)[C@@H](C)C2CC1 (stereo partly drawn) | – | – | – | inactive | inactive | inactive | inactive | 100%

From ChEMBL document CHEMBL4421717, “Antagonists and agonists of bitter taste receptors and uses thereof” (2012)
